Laboratory results as given in ChEMBL document CHEMBL3769369, “Ligand-based modeling of diverse aryalkylamines yields new potent P-glycoprotein inhibitors” (Eur J Med Chem, 2016).

Columns and labels:
[1] = Cytotoxicity against human fibroblast cells assessed as viable cells at 50 uM by trypan blue staining based assay; assay type: cell-based; details: read-out: Activity
MCF7 [2] = test: Cytotoxicity against human MCF7 cells assessed as viable cells at 50 uM by trypan blue staining based assay; assay type: functional; details: read-out: Activity
[3] = Inhibition of P-gp in human MCF7/D70 cells assessed as decrease in doxorubicin IC50 at 50 uM after 72 hrs by MTT assay (Rvb doxorubicin alone IC50 = 0.906 +/- 0.02 uM); assay type: cell-based; details: MCF7/D70, 72 h
[4] = Cytotoxicity against human fibroblast cells assessed as viable cells at 10 uM by trypan blue staining based assay; assay type: cell-based; details: read-out: Activity
MCF7 [5] = test: Cytotoxicity against human MCF7 cells assessed as viable cells at 10 uM by trypan blue staining based assay; assay type: functional; details: read-out: Activity
[6] = Inhibition of P-gp in human MCF7/D70 cells assessed as decrease in doxorubicin IC50 at 10 uM after 72 hrs by MTT assay (Rvb doxorubicin alone IC50 = 0.906 +/- 0.02 uM); assay type: cell-based; details: MCF7/D70, 72 h
[7] = Inhibition of P-gp in human MCF7/D70 cells assessed as decrease in doxorubicin IC50 at 1 uM after 72 hrs by MTT assay (Rvb doxorubicin alone IC50 = 0.906 +/- 0.02 uM); assay type: cell-based; details: MCF7/D70, 72 h

SMILES | viability at 50 µM [1] [%] | viability at 50 µM (MCF7 [2]) [%] | IC50 [3] [nM] | viability at 10 µM [4] [%] | viability at 10 µM (MCF7 [5]) [%] | IC50 [6] [nM] | IC50 [7] [nM]
COc1ccc(C2NC(C(=O)O)Cc3c2[nH]c2ccccc32)cc1OC (centres undefined) | 100 | 92 | 1180 | 92 | 89 | – | –
CCCC(=O)N(C)C1=Nc2ccc(Cl)cc2C(c2ccccc2)=[N+]([O-])C1 | 68 | 70 | 490 | 100 | 95 | 380 | 390
CCC1=C(CC2NCCc3ccccc32)CC2c3cc(OC)c(OC)cc3CCN2C1 (centres undefined) | 16 | 5 | – | 46 | 31 | – | –
CCN(CC)CCC(=O)NC1c2ccc(Cl)cc2Oc2c(C)cccc21 (centres undefined) | 13 | 9 | – | 100 | 100 | – | –
Cc1nn(C(=O)Cc2ccccc2)c2c1C(c1ccc(O)cc1)SC(=N)N2 (centres undefined) | 63 | 55 | 2070 | 100 | 96 | – | –
CCC(C)N1CN(c2ccccc2)C2(CCN(CC3COc4ccccc4O3)CC2)C1=O (centres undefined) | 70 | 11 | – | 100 | 93 | – | –
CN/N=C(\C)C(CN1CCCCC1)C(C1=C(O)c2ccccc2OC1)c1ccccc1 (centres undefined) | 75 | 97 | 1080 | 100 | 100 | – | –
O=C1CN(CCN2CC(=O)N(Cc3ccccc3)C(=O)C2)CC(=O)N1Cc1ccccc1 | 82 | 69 | 240 | 100 | 76 | 850 | –
CC1(CN2CCCC2)CCC(NC(=O)C(c2ccccc2)c2ccccc2)C(C)(C)O1 (centres undefined) | 54 | 51 | 140 | 88 | 100 | 1730 | –
CCCNCCC(O)c1cc(C(F)(F)F)nc2c(C(F)(F)F)cccc12 (centres undefined) | 19 | 6 | – | 67 | 9 | – | –
CCN(Cc1ccccc1)C(=O)C1CCN(Cc2c[nH]c3ccccc23)CC1 | 21 | 13 | 620 | 56 | 48 | – | –
ClCCNCc1cccc(Nc2ccnc3cc(Cl)ccc23)c1 | 48 | 15 | – | 96 | 86 | – | –
N=c1[nH]c(=O)n(CCCCOc2ccccc2)cc1-c1ccc(Cl)c(Cl)c1 | 56 | 58 | 240 | 100 | 77 | 570 | –
CC1CN(CCOC(=O)C(c2ccccc2)C2C=CCCC2)C(C)(C)C1 (centres undefined) | 36 | 61 | – | 84 | 93 | – | –
CN1CN(c2ccccc2)C2(CCN(CCc3cc4ccccc4o3)CC2)C1=O | 21 | 14 | – | 92 | 31 | – | –
CC1(C)CCN(CCOC(=O)C(c2ccccc2)C2C=CCCC2)C1 (centres undefined) | 59 | 53 | 550 | 100 | 98 | – | –
O=C1NCN(c2ccccc2)C12CCN(CCCS(=O)(=O)c1ccccc1)CC2 | 100 | 80 | 240 | 100 | 77 | 1140 | –
COc1cc2c(cc1OC)C1C(CO)c3ccc4c(c3CN1CC2)OCO4 (centres undefined) | 75 | 72 | 570 | 100 | 90 | – | –

SMILES | viability at 50 µM [1] [%] | viability at 50 µM (MCF7 [2]) [%] | IC50 [3] [nM] | viability at 10 µM [4] [%] | viability at 10 µM (MCF7 [5]) [%] | IC50 [6] [nM] | IC50 [7] [nM]
COc1cc(C2CNCc3cc(OC)c(O)cc32)ccc1O (centres undefined) | 90 | 73 | 610 | 100 | 76 | 840 | –
NC(c1ccc2c(c1)OCO2)C(O)c1ccc2c(c1)OCO2 (centres undefined) | 82 | 72 | 2520 | 100 | 74 | – | –
COc1cc2c(cc1OC)C(c1ccc(O)c(O)c1)CNC2 (centres undefined) | 97 | 97 | 800 | 100 | 93 | – | –
COc1ccc(Nc2ccnc3cc(Cl)ccc23)cc1CNCC(C)C | 17 | 6 | – | 12 | 26 | – | –
Cc1ccc(N2CCN(CCCOC(=O)Nc3cccc4ccccc34)CC2)cc1 | 89 | 70 | 830 | 89 | 93 | – | –
Fc1ccc(N/C2=N/CC/N=C(/Nc3ccc(F)cc3)SS2)cc1 | 57 | 58 | 190 | 100 | 92 | 320 | 320
COc1cc(-n2c(CCc3nc(-c4ccc(Cl)cc4)no3)n[nH]c2=S)c(OC)cc1Cl | 61 | 71 | 300 | 74 | 86 | 310 | 940
Cc1ccc2c(c1)C(NC(Cc1ccccc1)C(=O)O)C(Cl)C(=O)O2 (centres undefined) | 100 | 74 | 850 | 94 | 75 | – | –
COc1cc(C2CNCc3cc(O)c(OC)cc32)ccc1O (centres undefined) | 100 | 80 | 830 | 100 | 75 | – | –
O=C1OCCN1N1C(=O)CC2(CCN(Cc3ccccc3)CC2)C1=O | 100 | 89 | 510 | 100 | 95 | – | –
C[N+]1(CCOC(=O)C(c2ccccc2)C2C=CCC2)CCCC12CCCCC2 (centres undefined) | 81 | 75 | 1550 | 100 | 89 | – | –
CN(C)C1C(c2ccccc2)S(=O)(=O)C1C1CS(=O)(=O)C1c1ccccc1 (centres undefined) | 19 | 5 | – | 39 | 68 | – | –
CC1CN(CC2COc3ccccc3O2)C(C)CN1CC1COc2ccccc2O1 (centres undefined) | 77 | 53 | 580 | 100 | 80 | 1450 | –
CN1CCc2ccccc2C1Cc1cc(OCc2ccccc2)ccc1N (centres undefined) | 16 | 6 | – | 82 | 74 | – | –
CC1CN(CCOC(=O)C(c2ccccc2)C2C=CCCC2)CC1C (centres undefined) | 100 | 74 | 2120 | 100 | 89 | – | –
C=CCN1CC[C@]23c4c5ccc(O)c4O[C@H]2C(=O)CC[C@@]3(O)[C@H]1C5 [NALOXONE] | 100 | 67 | 360 | 100 | 74 | 850 | –
COc1ccc(CCN(C)CCCC(C#N)(c2ccc(OC)c(OC)c2)C(C)C)cc1OC (centres undefined) [VERAPAMIL] | – | – | – | – | – | 200 | –
